# Assay results taken from US6521179B1, “Sterilization” (Biomedical Design, Inc., priority 1999, dated 2003).
# Key:
# [1] = EDC sterilization of pretreated cross-linked porcine aortic root tissue without lower alkanol; settings: tissue pretreated with acetic anhydride or a mixture of TRIS and isopropylamine; absence of a lower alkanol
# [2] = tested on: Bacillus Subtilis (ATCC 9372)spores; assay: Sterilization of spores inoculated in cups with cross-linked porcine heart valve leaflets (Example 1); type: cell-based; settings: EDC 25 mM, 50 mM and 70 mM, 100 mM ethanolamine, 20% isopropyl alcohol, HEPES pH 6.5, 40° C., after one day
# Procedure: When porcine aortic roots that are fixed are employed, they are cross-linked according to the method described in U.S. Pat. No. 5,447,536 or glutaraldehyde-fixed or cross-linked or fixed with any other method used to preserve tissue. After fixation, the tissue is stored in 10 mM HEPES, 0.85% NaCl, 20% isopropyl alcohol, pH 7.4, at 4° C. The sterility tests described in the following examples are conducted in the presence of bovine pericardium or porcine heart valve tissue. After such tissue is inoculated with microorganisms for test purposes and then submitted to sterilization, the solution is filtered through a 0.45 micron filter attached to a funnel (filter funnel). The tissue is washed for 20 minutes in a reciprocating shaker in the presence of peptone water containing Tween 80 in order to extract all indigenous spores or microorganisms from the tissue. This solution is then filtered through the same respective filter. The filters are then rinsed with peptone water to eliminate residual chemicals on the membrane that may prevent growth of the organisms tested. The membrane filters are incubated on solid agar TSA plates (Millipore) at about 32° to 33° C., e.g. 32.5° C. All microbiological testing is performed in a biological laminar flow hood to prevent contamination. […]
# spores Bacillus subtilis = assay: Sterilization efficacy of EDC with blocking agents, spores in glass ampoules (Example 3); type: cell-based; settings: EDC in HEPES buffer containing 20% isopropyl alcohol, in the presence or absence of tissue
# Procedure: EDC sterilization in HEPES buffer containing 20% isopropyl alcohol, carried out either in the presence or in the absence of tissue, leads to complete kill of the spores Bacillus subtilis. The following experiment was designed to test whether the sterilization efficacy of EDC remains substantially unaffected by the presence of […]. […] After 10 minutes, 10 mL of Solutions A, B, C, D, E and F containing 25 mM EDC were added, the ampoules were heat-sealed and placed at 40° C. After 24 hours, the solutions from the ampoules were filtered to recover the spores, the filters were washed with 0.1% peptone water, and these were incubated on TSA plates for up to 10 days at 32° C. to 33° C., after which the colonies were enumerated.
compound,measurement,setting,value
"CCN=C=NCCCN(C)C.Cl [EDC, 1-ethyl-3(3-dimethylaminopropyl) carbodiimide hydrochloride]",sterilization of tissue samples,[1],effectively sterilized
same,kill of spores,[2],complete kill
same,kill of spores,spores Bacillus subtilis,complete kill
